Experimental data taken from patent publication US11998595B2, “Telomerase polypeptide vaccine for treating cancer” (Ultimovacs AS, priority 2010, dated 2024).

How the values were obtained:
[1] = system: late stage inoperable colon cancer patient; test: Clinical course of vaccinated colon cancer patient; type: in vivo, human; details: patient Colon ca P1
Procedure: (§1) A comparison of the patients studied in Example 4 was carried out. In brief, seven patients were identified as clinical responders following a cancer diagnosis and vaccination with an hTERT vaccine. These patients were identified based on a combination of prolonged survival and clinical response. The clinical response could either be stable disease (SD), partial response (PR) or complete response (CR). The vaccinated melanoma patients were diagnosed with stage IV at the time of inclusion in the clinical trial, but had no brain metastases. Lung cancer patient P5 was diagnosed with stage IV, inoperable lung cancer and colon cancer patient P1 with late stage inoperable colon cancer. Lung cancer patient P6 was a stage IV lung cancer patient with a 12-week life expectancy. Pancreas cancer patient P1 had relapsed, inoperable pancreas cancer and a life expectancy of 8-10 months. Four of the patients (designated Melanoma P7-P8, Lung cancer P5 and Colon cancer P1) had each been vaccinated with the peptide GV1001 (SEQ ID NO. 10). The fifth patient (designated Lung cancer P6) and the sixth patient (designated Pancreas cancer 1) had been vaccinated with dendritic cells transfected with mRNA encoding hTERT. The seventh patient, Melanoma patient P9, had not been vaccinated at the time of the study and instead developed a spontaneous response following development of the cancer. (An eighth and final patient was also identified as a clinical responder but samples from this patient were not available for study.)
(§2) The patients were classed as either clinical responders or clinical non-responders based on their clinical response which included stable disease (SD), tumour regression (PR or CR) and unexpectedly long survival time. Both clinical responders and clinical non-responders were selected from the same or similar vaccination trials.

[2] = system: stage IV lung cancer patients; test: Clinical course of vaccinated lung cancer patients; type: in vivo, human; parameters: key to Clinical response: PD = Progressive disease; SD = Stable disease; PR = Partial response; CR = Complete response
Procedure: as §1
Four patients who were clinical non-responders following a lung cancer diagnosis and a GV1001 (SEQ ID NO. 10) peptide vaccination were studied. These patients were all stage IV lung cancer patients vaccinated with GV1001. […] The proliferative T-cell responses of each patient to a series of peptides were determined in the same manner as in Example 1, at one time point. The peak response of each patient during the study period to peptide GV1001 is also shown which confirms that each patient responded immunologically to GV1001 vaccination.
as §2

With “EARPALLTSRLRFIPK (listed as Homo sapiens) [GV1001]” the “Clinical Responder” value [1] was “Yes”, the Clinical response [1] was “alive, CR” and the “Vaccine-specific T cell response at time-point tested” value (from here on “Vaccine-specific T cell response”) [1] was “Yes”. For the same sequence, the “Survival (Months)” value ([1]; + signifies that the patient is still alive) was 80+ Months, the “Clinical Responder” value ([2]; patient Lung ca P1) was “No” and the Clinical response ([2]; patient Lung ca P1) was “PD”. The “Survival (Months)” value ([2]; patient Lung ca P1) was 14 Months, the “Vaccine-specific T cell response” value ([2]; patient Lung ca P1) was “Yes” and the “Clinical Responder” value ([2]; patient Lung ca P2) was “No”. For the same sequence, the Clinical response ([2]; patient Lung ca P2) was “PD”, the “Survival (Months)” value ([2]; patient Lung ca P2) was 6 Months and the “Vaccine-specific T cell response” value ([2]; patient Lung ca P2) was “Yes”. The “Clinical Responder” value ([2]; patient Lung ca P3) was “No”, the “Survival (Months)” value ([2]; patient Lung ca P3) was 20 Months and the “Vaccine-specific T cell response” value ([2]; patient Lung ca P3) was “Yes”. For the same sequence, the “Clinical Responder” value ([2]; patient Lung ca P4) was “No”, the “Survival (Months)” value ([2]; patient Lung ca P4) was 10 Months and the “Vaccine-specific T cell response” value ([2]; patient Lung ca P4) was “Yes”. The “Clinical Responder” value ([2]; patient Lung ca P5) was “Yes”, the Clinical response ([2]; patient Lung ca P5) was “alive, CR” and the “Vaccine-specific T cell response” value ([2]; patient Lung ca P5) was “Yes”. For the same sequence, the “Survival (Months)” value ([2]; patient Lung ca P5, + signifies that the patient is still alive) was 106+ Months.
